{"source": "patent US20240101599A1", "about": "“PEPTIDE, CELL GROWTH PROMOTER, PROTEIN PRODUCTION PROMOTER, CULTURE MEDIUM, CELL GROWTH METHOD USING PEPTIDE, AND PROTEIN PRODUCTION METHOD USING PEPTIDE” (Maruhachi Muramatsu, Inc., priority 2020, published 2024)", "key": {"CHO-K1 [1]": {"test_system": "CHO-K1", "experiment": "Relationship between concentration of each peptide solution and viable cell count (absorbance)", "format": "cell-based", "details": "for Absorbance (450 nm): 5 days, MEMα without FBS, n = 3 average, 0 mM = 0.0000; for cell growth promotion, order of the peptides: in words, promoted in the order GEK, DGP, AGK, GPP, GGP, AEK, AGG, ASN, EGK (strongest first)", "procedure": "Peptides having the sequences of Gly-Glu-Lys (GEK), Asp-Gly-Pro (DGP), Ala-Gly-Lys (AGK), Gly-Pro-Pro (GPP), Gly-Gly-Pro (GGP), Ala-Glu-Lys (AEK), Ala-Gly-Gly (AGG), Ala-Ser-Asn (ASN), and Glu-Gly-Lys (EGK), and Gly-Gly-Gly (GGG) are synthesized to prepare each of peptide solutions at 10-fold concentrations shown in Tables 1 to 10.\nA cell suspension prepared such that CHO-K1 (RI KEN BioResource Research Center, cell number: RCB2330) was at 3×10^4 cells/mL was seeded in a 96-well plate at 100 μL/well and cultured in an incubator at 37° C. and 5% CO2 for 24 hours. As a culture medium, an MEMα culture medium (Gibco) containing 10% FBS was used.\nAfter removing the culture medium from each well and washing with the MEMα culture medium (100 μL), 90 μL of a new MEMa culture medium was dispensed into each well, and each peptide solution (10 μL) was added (total 100 μL/well) such that final concentrations were within a range of 0 mM to 5 mM as shown in Tables 1 to 10 to perform culture for 5 days. A similar culture test was performed using a system containing neither peptide nor FBS as a comparative sample. After culturing for 5 days, 10 μL/well of a viable cell count measurement reagent SF (Nacalai Tesque Inc.) was added, and a color reaction was carried out in an incubator at 37° C. and 5% CO2 for 2 hours to measure an absorbance at 450 nm with a plate reader. A reference wavelength was 630 nm. It was confirmed that the absorbance at 450 nm correlated with the cell number.\nThe above preparation, culture, and measurement were performed with n=3, and Tables 1 to 10 and FIGS. 1 to 10 show the absorbance at the concentration of each peptide solution."}, "CHO-K1 [2]": {"test_system": "CHO-K1", "experiment": "Cell growth test of each peptide on coating agent for 5 days", "format": "cell-based", "parameters": "Viability, 1 / Viability, 2 / Viability, 3 / Viability, Mean: unit not given here", "details": "2.0 mM Ala-Gly-Lys, 2.1 mM Gly-Glu-Lys, 2.5 mM Gly-Gly-Gly, poly-L-lysine coating", "procedure": "Peptides having the sequences of Asp-Gly-Pro (DGP), Ala-Gly-Lys (AGK), Gly-Glu-Lys (GEK), and Gly-Gly-Gly (GGG) were synthesized to prepare each peptide solution such that the concentration was a concentration at which the cell number increased the most within a range of 0 mM to 5 mM. In other words, Asp-Gly-Pro (DGP) was adjusted to 22 mM, Ala-Gly-Lys (AGK) was adjusted to 20 mM, Gly-Glu-Lys (GEK) was adjusted to 21 mM, and Gly-Gly-Gly (GGG) was adjusted to 25 mM, and an amount of 1/10 of the total culture medium volume was added to each well immediately before the cell culture test such that final concentrations were 2.2 mM, 2.0 mM, 2.1 mM, and 2.5 mM, respectively. Poly-L-lysine (Peptide Institute, Inc., Poly-L-Lysine Hydrochloride, code: 3075) was prepared to 0.1 mg/mL, and 200 μL was dispensed into each well of a 24-well plate, which was left to stand in an incubator at 37° C. for 2 hours. After removing the residual liquid with an aspirator, rinsing was performed with distilled water, irradiation was performed with a UV lamp in a clean bench without a lid, and drying was performed overnight to sterilize. A cell suspension prepared such that CHO-K1 (RIKEN BioResource Research Center, cell number: RCB2330) was at 4×10^4 cells/mL was seeded in each well of a 24-well plate at 500 μL/well and cultured in an incubator at 37° C. and 5% CO2 for 24 hours. As a culture medium, an MEMα culture medium (Gibco) containing 10% FBS was used.\nAfter removing the culture medium from each well and washing with the MEMα culture medium (500 μL), 450 μL of a new MEMα culture medium was dispensed into each well, and each peptide solution (50 μL) was added (total 500 μL/well) to perform culture for 5 days. The cells were recovered to count the cell number. A similar culture test was performed using a system containing neither peptide nor FBS as a comparative sample.\nThe culture medium in each well was recovered in a 1.5 mL tube to be rinsed with 200 μL of MEMα, and the rinsed liquid was also recovered in the same 1.5 mL tube. Thereafter, 100 μL of trypsin was added and incubated for 3 minutes. After rinsing with 300 μL of MEMα containing 10% FBS, the rinsed liquid was also recovered in the same 1.5 mL tube. After rinsing again with 200 μL of MEMα containing 10% FBS, the rinsed liquid was also recovered in the same 1.5 mL tube.\nA centrifugation operation was performed on the cells recovered in the 1.5 mL tube. The centrifugation conditions were 1,000 rpm, 10 minutes, and 4° C.\nThe supernatant was removed, and 300 μL of Cold PBS (phosphate buffered saline) was added to perform a centrifugation operation under the same conditions. The present operation was repeated twice.\nSuspension was carried out with 100 μL of Binding Buffer, and 2 μL of propidium iodide (PI) was added and stirred in the tube to cause a reaction for 15 minutes at room temperature and with light shielding. Thereafter, the viable cell count and the cell viability were measured with a flow cytometer.\nThe above preparation, culture, and measurement were performed with n=3. Table 15 and FIG. 15 show the viable cell count in each peptide solution, and Table 16 and FIG. 16 show the cell viability in each peptide solution."}, "[3]": {"details": "replicate 1, 2.2 mM Asp-Gly-Pro"}, "[4]": {"details": "replicate 2, 2.2 mM Asp-Gly-Pro"}, "[5]": {"details": "replicate 3, 2.2 mM Asp-Gly-Pro"}}}
{"substance": "Ala-Glu-Lys [AEK]", "values": [{"measurement": "Absorbance (450 nm)", "setting": "CHO-K1 [1]; 0.129 mM peptide", "value": 0.0350}, {"measurement": "Absorbance (450 nm)", "setting": "CHO-K1 [1]; 0.259 mM peptide", "value": 0.1143}, {"measurement": "Absorbance (450 nm)", "setting": "CHO-K1 [1]; 0.516 mM peptide", "value": 0.1927}, {"measurement": "Absorbance (450 nm)", "setting": "CHO-K1 [1]; 1.03 mM peptide", "value": 0.2337}, {"measurement": "Absorbance (450 nm)", "setting": "CHO-K1 [1]; 2.06 mM peptide", "value": 0.5013}, {"measurement": "Absorbance (450 nm)", "setting": "CHO-K1 [1]; 4.13 mM peptide", "value": 0.4857}, {"measurement": "cell growth promotion, order of the peptides", "setting": "CHO-K1 [1]", "value": "cell growth was promoted"}]}
{"substance": "Ala-Gly-Gly [AGG]", "values": [{"measurement": "Absorbance (450 nm)", "setting": "CHO-K1 [1]; 0.156 mM peptide", "value": 0.0277}, {"measurement": "Absorbance (450 nm)", "setting": "CHO-K1 [1]; 0.313 mM peptide", "value": 0.0274}, {"measurement": "Absorbance (450 nm)", "setting": "CHO-K1 [1]; 0.625 mM peptide", "value": 0.0967}, {"measurement": "Absorbance (450 nm)", "setting": "CHO-K1 [1]; 1.25 mM peptide", "value": 0.2064}, {"measurement": "Absorbance (450 nm)", "setting": "CHO-K1 [1]; 2.5 mM peptide", "value": 0.3357}, {"measurement": "Absorbance (450 nm)", "setting": "CHO-K1 [1]; 5 mM peptide", "value": 0.2080}, {"measurement": "cell growth promotion, order of the peptides", "setting": "CHO-K1 [1]", "value": "cell growth was promoted"}]}
{"substance": "Ala-Ser-Asn", "values": [{"measurement": "Absorbance (450 nm)", "setting": "CHO-K1 [1]; 0.138 mM peptide", "value": "−0.0527"}, {"measurement": "Absorbance (450 nm)", "setting": "CHO-K1 [1]; 0.276 mM peptide", "value": "−0.0250"}, {"measurement": "Absorbance (450 nm)", "setting": "CHO-K1 [1]; 0.552 mM peptide", "value": "−0.0214"}, {"measurement": "Absorbance (450 nm)", "setting": "CHO-K1 [1]; 1.10 mM peptide", "value": "−0.0224"}, {"measurement": "Absorbance (450 nm)", "setting": "CHO-K1 [1]; 2.21 mM peptide", "value": 0.1170}, {"measurement": "Absorbance (450 nm)", "setting": "CHO-K1 [1]; 4.42 mM peptide", "value": 0.3320}, {"measurement": "cell growth promotion, order of the peptides", "setting": "CHO-K1 [1]", "value": "cell growth was promoted"}]}
{"substance": "Glu-Gly-Lys [EGK]", "values": [{"measurement": "Absorbance (450 nm)", "setting": "CHO-K1 [1]; 0.128 mM peptide", "value": 0.0383}, {"measurement": "Absorbance (450 nm)", "setting": "CHO-K1 [1]; 0.257 mM peptide", "value": 0.1123}, {"measurement": "Absorbance (450 nm)", "setting": "CHO-K1 [1]; 0.512 mM peptide", "value": 0.0893}, {"measurement": "Absorbance (450 nm)", "setting": "CHO-K1 [1]; 1.02 mM peptide", "value": 0.1503}, {"measurement": "Absorbance (450 nm)", "setting": "CHO-K1 [1]; 2.05 mM peptide", "value": 0.1876}, {"measurement": "Absorbance (450 nm)", "setting": "CHO-K1 [1]; 4.10 mM peptide", "value": 0.2373}, {"measurement": "cell growth promotion, order of the peptides", "setting": "CHO-K1 [1]", "value": "cell growth was promoted"}]}
{"substance": "Gly-Gly-Gly [GGG, reference compound]", "values": [{"measurement": "Absorbance (450 nm)", "setting": "CHO-K1 [1]; 0.156 mM peptide", "value": 0.0067}, {"measurement": "Absorbance (450 nm)", "setting": "CHO-K1 [1]; 0.313 mM peptide", "value": 0.0037}, {"measurement": "Absorbance (450 nm)", "setting": "CHO-K1 [1]; 0.625 mM peptide", "value": 0.0027}, {"measurement": "Absorbance (450 nm)", "setting": "CHO-K1 [1]; 1.25 mM peptide", "value": "−0.0013"}, {"measurement": "Absorbance (450 nm)", "setting": "CHO-K1 [1]; 2.5 mM peptide", "value": 0.0013}, {"measurement": "Absorbance (450 nm)", "setting": "CHO-K1 [1]; 5 mM peptide", "value": 0.0083}, {"measurement": "Cells cell count, Mean", "setting": "CHO-K1 [2]; mean n=3, 2.2 mM Asp-Gly-Pro", "value": "0.0502 ×10^4"}, {"measurement": "Viability, Mean", "setting": "CHO-K1 [2]; mean n=3, 2.2 mM Asp-Gly-Pro", "value": 1.7}, {"measurement": "Cells cell count, 1", "setting": "CHO-K1 [2]; [3]", "value": "0.1360 ×10^4"}, {"measurement": "Viability, 1", "setting": "CHO-K1 [2]; [3]", "value": 4.45}, {"measurement": "Cells cell count, 2", "setting": "CHO-K1 [2]; [4]", "value": "0.0080 ×10^4"}, {"measurement": "Viability, 2", "setting": "CHO-K1 [2]; [4]", "value": 0.31}, {"measurement": "Cells cell count, 3", "setting": "CHO-K1 [2]; [5]", "value": "0.0065 ×10^4"}, {"measurement": "Viability, 3", "setting": "CHO-K1 [2]; [5]", "value": 0.21}]}
{"substance": "Gly-Gly-Pro [GGP]", "values": [{"measurement": "Absorbance (450 nm)", "setting": "CHO-K1 [1]; 0.135 mM peptide", "value": 0.0420}, {"measurement": "Absorbance (450 nm)", "setting": "CHO-K1 [1]; 0.270 mM peptide", "value": 0.0966}, {"measurement": "Absorbance (450 nm)", "setting": "CHO-K1 [1]; 0.539 mM peptide", "value": 0.2946}, {"measurement": "Absorbance (450 nm)", "setting": "CHO-K1 [1]; 1.08 mM peptide", "value": 0.4653}, {"measurement": "Absorbance (450 nm)", "setting": "CHO-K1 [1]; 2.16 mM peptide", "value": 0.5483}, {"measurement": "Absorbance (450 nm)", "setting": "CHO-K1 [1]; 4.31 mM peptide", "value": 0.3286}, {"measurement": "cell growth promotion, order of the peptides", "setting": "CHO-K1 [1]", "value": "cell growth was promoted"}]}
